Where “and” joins values, the source holds several entries; their conditions need not be identical. Identical values can stand only once.
Test system: 292921-168-R-J2-PDC KRAS tumor spheroid viability
Experiment: Anticancer human tumor 292921-168-R-J2-PDC patient-derived pancreatic carcinoma cell line growth inhibition [KRAS2]
Details: spheroids with HUVEC and MSC; for viability, T/C: stronger effect = lower value
How it was run: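 Combination screen of spheroid viability in tumor-cell co-cultures with endothelial (HUVEC) and mesenchymal stem cell stroma. Each agent was tested in half-log dilutions, topping at clinical Cmax or at 10 microM without a known Cmax.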

[1] = curve of first compound, second compound 0.1 µM
[2] = curve of first compound, second compound 0.316 µM
[3] = curve of first compound, second compound 1 µM
[4] = curve of first compound, second compound 3.16 µM
[5] = curve of first compound, second compound 10 µM
[6] = second compound 0.1 µM, first compound 0.01 µM
[7] = second compound 0.1 µM, first compound 0.0316 µM
[8] = second compound 0.1 µM, first compound 0.1 µM
[9] = second compound 0.1 µM, first compound 0.316 µM
[10] = second compound 0.1 µM, first compound 1 µM
[11] = second compound 0.1 µM, first compound 3.16 µM
[12] = second compound 0.316 µM, first compound 0.01 µM
[13] = second compound 0.316 µM, first compound 0.0316 µM
[14] = second compound 0.316 µM, first compound 0.1 µM
[15] = second compound 0.316 µM, first compound 0.316 µM
[16] = second compound 0.316 µM, first compound 1 µM
[17] = second compound 0.316 µM, first compound 3.16 µM
[18] = second compound 1 µM, first compound 0.01 µM
[19] = second compound 1 µM, first compound 0.0316 µM
[20] = second compound 1 µM, first compound 0.1 µM
[21] = second compound 1 µM, first compound 0.316 µM
[22] = second compound 1 µM, first compound 1 µM
[23] = second compound 1 µM, first compound 3.16 µM
[24] = second compound 3.16 µM, first compound 0.01 µM
[25] = second compound 3.16 µM, first compound 0.0316 µM
[26] = second compound 3.16 µM, first compound 0.1 µM
[27] = second compound 3.16 µM, first compound 0.316 µM
[28] = second compound 3.16 µM, first compound 1 µM
[29] = second compound 3.16 µM, first compound 3.16 µM
[30] = second compound 10 µM, first compound 0.01 µM
[31] = second compound 10 µM, first compound 0.0316 µM
[32] = second compound 10 µM, first compound 0.1 µM
[33] = second compound 10 µM, first compound 0.316 µM
[34] = second compound 10 µM, first compound 1 µM
[35] = second compound 10 µM, first compound 3.16 µM
[36] = second compound 0.1 µM, first compound 10 µM
[37] = second compound 0.316 µM, first compound 10 µM
[38] = second compound 1 µM, first compound 10 µM
[39] = second compound 3.16 µM, first compound 10 µM
[40] = second compound 10 µM, first compound 10 µM
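Also: drug exposure lasted seven days after spheroids formed for three days.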
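For viability, T/C in this document: percent of DMSO vehicle control viability which is 100%.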

For `CC1COCCN1c1cc(-c2ccnn2C)c2ccnc(-c3ccn[nH]3)c2n1` (centres undefined) + C=CC(=O)N1CCN(c2nc(=O)n(-c3c(C)ccnc3C(C)C)c3nc(-c4c(O)cccc4F)c(F)cc23)C(C)C1, the IC50 [1] was < 10 nM, the IC50 [2] was < 10 nM and the IC50 [3] was < 10 nM. The IC50 [4] was < 10 nM, the IC50 [5] was < 10 nM and the viability, T/C [6] was 41.9%. For the same molecule, the viability, T/C [7] was 19.9%, the viability, T/C [8] was 15% and the viability, T/C [9] was 13.6%. The viability, T/C [10] was 16.1%, the viability, T/C [11] was 18.3% and the viability, T/C [12] was 32.8%. It also gave a viability, T/C [13] of 20.1%, a viability, T/C [14] of 13.5% and a viability, T/C [15] of 14.6%. It also gave a viability, T/C [16] of 17.5%, a viability, T/C [17] of 20% and a viability, T/C [18] of 30.3%. It also gave a viability, T/C [19] of 16.8%, a viability, T/C [20] of 12.9% and a viability, T/C [21] of 15.5%. The viability, T/C [22] was 18.7%, the viability, T/C [23] was 23.2% and the viability, T/C [24] was 17.1%. It also gave a viability, T/C [25] of 12%, a viability, T/C [26] of 12.4% and a viability, T/C [27] of 16.8%. For the same molecule, the viability, T/C [28] was 21.8%, the viability, T/C [29] was 24.1% and the viability, T/C [30] was 12.1%. For the same molecule, the viability, T/C [31] was 12.7%, the viability, T/C [32] was 14.7% and the viability, T/C [33] was 19.1%. For the same molecule, the viability, T/C [34] was 21.3% and the viability, T/C [35] was 24.8%.

`CCN1CCN(Cc2ccc(Nc3ncc(F)c(-c4cc(F)c5nc(C)n(C(C)C)c5c4)n3)nc2)CC1` was tested, and the viability, T/C (compound 0.00316 µM) was 88.5% and 85.8% and 83.2%, the viability, T/C (compound 0.01 µM) was 72.1% and 73% and 63.1% and the viability, T/C (compound 0.0316 µM) was 57.3% and 49.2% and 53%. The viability, T/C (compound 0.1 µM) was 36.8% and 43.1% and 36.2%, the viability, T/C (compound 0.316 µM) was 28.3% and 34.9% and 27.1% and the viability, T/C (compound 1 µM) was 17.8% and 23.3% and 20.6%. The IC50 (curve of compound) was 46.4 nM and 47.4 nM and 32.1 nM.

With `CC(C)NCC(C(=O)N1CCN(c2ncnc3c2C(C)CC3O)CC1)c1ccc(Cl)cc1` (centres undefined) + CC1OCC2(CCN(c3cnc(Sc4ccnc(N)c4Cl)c(N)n3)CC2)C1N the IC50 [1] was 5030 nM, the IC50 [2] was 3620 nM and the IC50 [3] was < 31.6 nM. The IC50 [4] was < 31.6 nM, the IC50 [5] was < 31.6 nM and the viability, T/C [7] was 67.3%. It also gave a viability, T/C [8] of 65.3%, a viability, T/C [9] of 65% and a viability, T/C [10] of 67%. It also gave a viability, T/C [11] of 58%, a viability, T/C [36] of 36.8% and a viability, T/C [13] of 51.1%. The viability, T/C [14] was 57%, the viability, T/C [15] was 56.8% and the viability, T/C [16] was 55.7%. The viability, T/C [17] was 52.3%, the viability, T/C [37] was 31.1% and the viability, T/C [19] was 46.2%. It also gave a viability, T/C [20] of 42.9%, a viability, T/C [21] of 48.1% and a viability, T/C [22] of 46.1%. It also gave a viability, T/C [23] of 39.3%, a viability, T/C [38] of 25.9% and a viability, T/C [25] of 36.1%. For the same molecule, the viability, T/C [26] was 36.5%, the viability, T/C [27] was 39.9% and the viability, T/C [28] was 41.7%. It also gave a viability, T/C [29] of 37.4%, a viability, T/C [39] of 22.7% and a viability, T/C [31] of 33.6%. The viability, T/C [32] was 33.8%, the viability, T/C [33] was 39.4% and the viability, T/C [34] was 33.8%. For the same molecule, the viability, T/C [35] was 32.9% and the viability, T/C [40] was 20.6%.

Work on `CC1(C)CCC(CN2CCN(c3ccc(C(=O)NS(=O)(=O)c4ccc(NCC5CCOCC5)c([N+](=O)[O-])c4)c(Oc4cnc5[nH]ccc5c4)c3)CC2)=C(c2ccc(Cl)cc2)C1` + CNCc1ccccc1-c1csc(C(C)Nc2nc(C)nc3cc(OC)c(OC)cc23)c1 yielded an IC50 [1] of 1950 nM, an IC50 [2] of 2130 nM and an IC50 [3] of 1380 nM. For the same molecule, the IC50 [4] was < 31.6 nM, the IC50 [5] was < 31.6 nM and the viability, T/C [7] was 94.3%. The viability, T/C [8] was 93.4%, the viability, T/C [9] was 102% and the viability, T/C [10] was 88.4%. For the same molecule, the viability, T/C [11] was 22%, the viability, T/C [36] was 8.05% and the viability, T/C [13] was 87.7%. The viability, T/C [14] was 86.9%, the viability, T/C [15] was 94.4% and the viability, T/C [16] was 86.6%. For the same molecule, the viability, T/C [17] was 30.8%, the viability, T/C [37] was 6.47% and the viability, T/C [19] was 60.5%. It also gave a viability, T/C [20] of 62.5%, a viability, T/C [21] of 68.2% and a viability, T/C [22] of 66.6%. For the same molecule, the viability, T/C [23] was 13%, the viability, T/C [38] was 5.94% and the viability, T/C [25] was 0.12%. The viability, T/C [26] was 1.9%, the viability, T/C [27] was 0.25% and the viability, T/C [28] was 0.79%. For the same molecule, the viability, T/C [29] was 0.4%, the viability, T/C [39] was 0.64% and the viability, T/C [31] was 0.08%. For the same molecule, the viability, T/C [32] was 0.08%, the viability, T/C [33] was 0.23% and the viability, T/C [34] was 0.08%. For the same molecule, the viability, T/C [35] was 0.09% and the viability, T/C [40] was 0.28%.

For `Cn1ncnc1[C@H]1c2n[nH]c(=O)c3cc(F)cc(c23)N[C@@H]1c1ccc(F)cc1`, the viability, T/C (compound 0.000316 µM) was 99.3% [middle of 5 runs], the viability, T/C (compound 0.001 µM) was 99.4% [middle of 5 runs] and the viability, T/C (compound 0.00316 µM) was 93.5% [middle of 5 runs]. The viability, T/C (compound 0.01 µM) was 89.9% [middle of 5 runs], the viability, T/C (compound 0.0316 µM) was 84.1% [middle of 5 runs] and the viability, T/C (compound 0.1 µM) was 74.5% [middle of 5 runs]. The IC50 (curve of compound) was > 100 nM.

With `CC(=O)Nc1cccc(-n2c(=O)n(C3CC3)c(=O)c3c(Nc4ccc(I)cc4F)n(C)c(=O)c(C)c32)c1` + C=CC(=O)N1CCN(c2nc(=O)n(-c3c(C)ccnc3C(C)C)c3nc(-c4c(O)cccc4F)c(F)cc23)C(C)C1 the IC50 [1] was 0.34 nM, the IC50 [2] was 0.468 nM and the IC50 [3] was 0.395 nM. The IC50 [4] was 0.235 nM, the IC50 [5] was < 0.1 nM and the viability, T/C (second compound 0.1 µM, first compound 0.0001 µM) was 90%. For the same molecule, the viability, T/C (second compound 0.1 µM, first compound 0.000316 µM) was 51.6%, the viability, T/C (second compound 0.1 µM, first compound 0.001 µM) was 27.4% and the viability, T/C (second compound 0.1 µM, first compound 0.00316 µM) was 18.7%. It also gave a viability, T/C [6] of 12.8%, a viability, T/C [7] of 7.68% and a viability, T/C (second compound 0.316 µM, first compound 0.0001 µM) of 92%. The viability, T/C (second compound 0.316 µM, first compound 0.000316 µM) was 60.1%, the viability, T/C (second compound 0.316 µM, first compound 0.001 µM) was 30.3% and the viability, T/C (second compound 0.316 µM, first compound 0.00316 µM) was 18.9%. It also gave a viability, T/C [12] of 11.9%, a viability, T/C [13] of 7.86% and a viability, T/C (second compound 1 µM, first compound 0.0001 µM) of 86.9%. For the same molecule, the viability, T/C (second compound 1 µM, first compound 0.000316 µM) was 54.4%, the viability, T/C (second compound 1 µM, first compound 0.001 µM) was 31.9% and the viability, T/C (second compound 1 µM, first compound 0.00316 µM) was 19.6%. For the same molecule, the viability, T/C [18] was 12.1%, the viability, T/C [19] was 8.24% and the viability, T/C (second compound 3.16 µM, first compound 0.0001 µM) was 62.1%. The viability, T/C (second compound 3.16 µM, first compound 0.000316 µM) was 46.4%, the viability, T/C (second compound 3.16 µM, first compound 0.001 µM) was 26.8% and the viability, T/C (second compound 3.16 µM, first compound 0.00316 µM) was 17.5%. It also gave a viability, T/C [24] of 11.5%, a viability, T/C [25] of 9.06% and a viability, T/C (second compound 10 µM, first compound 0.0001 µM) of 23%. For the same molecule, the viability, T/C (second compound 10 µM, first compound 0.000316 µM) was 19.9%, the viability, T/C (second compound 10 µM, first compound 0.001 µM) was 10.9% and the viability, T/C (second compound 10 µM, first compound 0.00316 µM) was 11.7%. For the same molecule, the viability, T/C [30] was 9.79% and the viability, T/C [31] was 9.65%.
